Where a name gives a salt, the structure may show the parent alone.
Tests used:
[1] = biological target: T1, S1P3 (Homo sapiens, UniProt Q99500); assay: Receptor [35S] GTPγS Binding Assay, membranes from EDG3-Ga15-bla HEK293T cells; format: biochemical; conditions: * detection limit 31,000 nM or 62,000 nM
T1 construct: expressed in transfected cells; host or cells: EDG3-Ga15-bla HEK293T cells
Method: (§1) Receptor [35S] GTPγS Binding Assays
(§2) Membranes prepared from S1P1/CHO cells or EDG3-Ga15-bla HEK293T cells were added to the compound plate (40 μl/well, final protein 3 μg/well) with MULTIDROP®. [^35S]GTP (1250 Ci/mmol, Perkin Elmer) was diluted in assay buffer: 20 mM HEPES, pH7.5, 10 mM MgCl2, 150 mM NaCl, 1 mM EGTA, 1 mM DTT, 10 μM GDP, 0.1% fatty acid free BSA, and 10 μg/ml Saponin to 0.4 nM. 40 μl of the [^35S] GTP solution was added to the compound plate with a final concentration of 0.2 nM. […] At the end of incubation, all the mixtures in the compound plate were transferred to a 384 well FB filter plates via GPCR robot system. […] 30 μl of MicroScint 20 scintillation fluid was added to each well for counting at Packard TOPCOUNT®.

[2] = biological target: S1P1 (Homo sapiens, UniProt P21453); assay: Receptor [35S] GTPγS Binding Assay, membranes from S1P1/CHO cells; format: biochemical; set-up: expressed in transfected cells; host or cells: S1P1/CHO cells; conditions: for EC50: membranes from S1P1/CHO cells, read-out: S1P1 GTPγS EC50; for S1P3/S1P1 GTPγS (ratio of S1P3 GTPγS EC50 to S1P1 GTPγS EC50): selectivity ratio calculated from Table B, * may be greater than reported value due to S1P3 assay limits
Method: as §1, §2

S1P1, sequence (P21453 whole entry): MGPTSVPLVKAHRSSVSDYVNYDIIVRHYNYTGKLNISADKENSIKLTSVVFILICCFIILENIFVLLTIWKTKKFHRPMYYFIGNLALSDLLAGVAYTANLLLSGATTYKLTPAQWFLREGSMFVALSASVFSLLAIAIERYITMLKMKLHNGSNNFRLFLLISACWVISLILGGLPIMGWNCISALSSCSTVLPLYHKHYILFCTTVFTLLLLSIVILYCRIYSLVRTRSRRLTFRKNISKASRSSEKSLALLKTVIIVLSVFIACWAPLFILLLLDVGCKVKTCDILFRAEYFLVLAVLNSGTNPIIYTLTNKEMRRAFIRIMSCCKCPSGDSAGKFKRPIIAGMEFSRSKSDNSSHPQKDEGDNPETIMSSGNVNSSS
T1 sequence (Q99500 whole entry): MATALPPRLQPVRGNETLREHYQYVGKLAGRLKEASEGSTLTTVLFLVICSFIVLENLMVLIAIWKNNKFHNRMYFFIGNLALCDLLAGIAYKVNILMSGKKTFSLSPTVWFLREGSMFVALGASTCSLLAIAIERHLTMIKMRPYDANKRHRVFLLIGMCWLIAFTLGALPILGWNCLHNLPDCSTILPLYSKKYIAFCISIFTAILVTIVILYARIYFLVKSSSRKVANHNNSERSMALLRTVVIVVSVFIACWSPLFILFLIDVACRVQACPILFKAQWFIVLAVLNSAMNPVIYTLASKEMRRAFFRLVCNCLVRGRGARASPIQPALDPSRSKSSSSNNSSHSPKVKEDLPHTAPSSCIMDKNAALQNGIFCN

Compound | EC50 [1] | EC50 [2] | S1P3/S1P1 GTPγS (ratio of S1P3 GTPγS EC50 to S1P1 GTPγS EC50) [2]
Cc1cccc(-c2noc(-c3nc(-c4ccc(C(O)CN5CCC[C@H](C(=O)O)C5)cc4)no3)c2C(F)(F)F)n1 (stereo partly drawn) [Example 37, (3S)-1-(2-Hydroxy-2-(4-(5-(3-(6-methylpyridin-2-yl)-4-(trifluoromethyl)isoxazol-5-yl)-1,2,4-oxadiazol-3-yl)phenyl)ethyl)piperidine-3-carboxylic acid] | > 62000 nM | 69 nM | ≥ 910*
O=C(O)[C@H]1CCCCN1CC(O)c1ccc(-c2noc(-c3onc(-c4ccccc4)c3C(F)(F)F)n2)cc1 (stereo partly drawn) [Example 41, (2R)-1-(2-Hydroxy-2-(4-(5-(3-phenyl-4-(trifluoromethyl)isoxazol-5-yl)-1,2,4-oxadiazol-3-yl)phenyl)ethyl)piperidine-2-carboxylic acid] | 7500 nM | 5.4 nM | 1400
O=C(O)[C@H]1CCCN(CC(O)c2ccc(-c3noc(-c4ccc(-c5ccccn5)s4)n3)cc2)C1 (stereo partly drawn) [Example 43, (3S)-1-(2-hydroxy-2-(4-(5-(5-(pyridin-2-yl)thiophen-2-yl)-1,2,4-oxadiazol-3-yl)phenyl)ethyl)piperidine-3-carboxylic acid] | > 62000 nM | 360 nM | ≥ 170*
Cc1nc(-c2ccccc2)sc1-c1nc(-c2ccc(C(O)CN3CCC[C@H](C(=O)O)C3)cc2)no1 (stereo partly drawn) [Example 46, (3S)-1-(2-hydroxy-2-(4-(5-(4-methyl-2-phenylthiazol-5-yl)-1,2,4-oxadiazol-3-yl)phenyl)ethyl)piperidine-3-carboxylic acid] | 8100 nM | 630 nM | 13
O=C(O)[C@H]1CCCN(CC(O)c2ccc(-c3noc(-c4cc(-c5ccc(Cl)cc5)on4)n3)cc2)C1 (stereo partly drawn) [Example 53, (3S)-1-(2-(4-(5-(5-(4-chlorophenyl)isoxazol-3-yl)-1,2,4-oxadiazol-3-yl)phenyl)-2-hydroxyethyl)piperidine-3-carboxylic acid] | > 31000 nM | 1900 nM | ≥ 16*
O=C(O)C[C@H]1CCCN(C[C@@H](O)c2ccc(-c3noc(-c4cnn(C5CCCCC5)c4C(F)(F)F)n3)cc2)C1 [Example 59, 2-((R)-1-((S)-2-(4-(5-(1-cyclohexyl-5-(trifluoromethyl)-1H-pyrazol-4-yl)-1,2,4-oxadiazol-3-yl)phenyl)-2-hydroxyethyl)piperidin-3-yl)acetic acid, HCl] | 2080 nM | 1.8 nM | 1160
O=C(O)C[C@H]1CCCN(C[C@@H](O)c2ccc(-c3noc(-c4cnn(-c5ccc(Cl)cn5)c4C(F)(F)F)n3)cc2)C1 [Example 70, 2-((R)-1-((S)-2-(4-(5-(1-(5-chloropyridin-2-yl)-5-(trifluoromethyl)-1H-pyrazol-4-yl)-1,2,4-oxadiazol-3-yl)phenyl)-2-hydroxyethyl)piperidin-3-yl)acetic acid, HCl] | 10400 nM | 1.2 nM | 8800
O=C(O)C[C@H]1CCCN(C[C@@H](O)c2ccc(-c3noc(-c4cnn(-c5ccccc5Cl)c4C(F)(F)F)n3)cc2)C1 [Example 72, 2-((3R)-1-((2S)-2-(4-(5-(1-(2-chlorophenyl)-5-(trifluoromethyl)-1H-pyrazol-4-yl)-1,2,4-oxadiazol-3-yl)phenyl)-2-hydroxyethyl)piperidin-3-yl)acetic acid, HCl] | 24800 nM | 3.6 nM | 6900
O=C(O)C[C@H]1CCCN(C[C@@H](O)c2ccc(-c3noc(-c4cnn(-c5ccc(F)cc5F)c4C(F)(F)F)n3)cc2)C1 [Example 73, 2-((3R)-1-((2S)-2-(4-(5-(1-(2,4-difluorophenyl)-5-(trifluoromethyl)-1H-pyrazol-4-yl)-1,2,4-oxadiazol-3-yl)phenyl)-2-hydroxyethyl)piperidin-3-yl)acetic acid, HCl] | 2200 nM | 2.1 nM | 1030
Cl.O=C(O)C[C@H]1CCCN(C[C@@H](O)c2ccc(-c3noc(-c4cnn(-c5ccc(F)cn5)c4C(F)(F)F)n3)cc2)C1 [Example 82, 2-((R)-1-((S)-2-(4-(5-(1-(5-fluoropyridin-2-yl)-5-(trifluoromethyl)-1H-pyrazol-4-yl)-1,2,4-oxadiazol-3-yl)phenyl)-2-hydroxyethyl)piperidin-3-yl)acetic acid, HCl] | 6090 nM | 3 nM | 2050
Cc1ccc(-n2ncc(-c3nc(-c4ccc([C@H](O)CN5CCC[C@H](CC(=O)O)C5)cc4)no3)c2C(F)(F)F)nc1 [Example 94, 2-((R)-1-((S)-2-hydroxy-2-(4-(5-(1-(5-methylpyridin-2-yl)-5-(trifluoromethyl)-1H-pyrazol-4-yl)-1,2,4-oxadiazol-3-yl)phenyl)ethyl)piperidin-3-yl)acetic acid] | 6300 nM | 8.6 nM | 730
O=C(O)[C@H]1CCCN(C[C@@H](O)c2ccc(-c3noc(-c4cnn(-c5ccc(C(F)(F)F)cn5)c4C(F)(F)F)n3)cc2)C1 [Example 98, (S)-1-((S)-2-hydroxy-2-(4-(5-(5-(trifluoromethyl)-1-(5-(trifluoromethyl)pyridin-2-yl)-1H-pyrazol-4-yl)-1,2,4-oxadiazol-3-yl)phenyl)ethyl)piperidine-3-carboxylic acid, HCl] | 3300 nM | 3 nM | 1100
O=C(O)[C@H]1CCCN(C[C@@H](O)c2ccc(-c3noc(-c4cnn(-c5ncc(Cl)cc5Cl)c4C(F)(F)F)n3)cc2)C1 [Example 100, (S)-1-((S)-2-(4-(5-(1-(3,5-dichloropyridin-2-yl)-5-(trifluoromethyl)-1H-pyrazol-4-yl)-1,2,4-oxadiazol-3-yl)phenyl)-2-hydroxyethyl) piperidine-3-carboxylic acid, HCl] | > 31000 nM | 6.8 nM | ≥ 4580*
O=C(O)[C@H]1CCCN(C[C@@H](O)c2ccc(-c3noc(-c4cnn(-c5ccccn5)c4C(F)(F)F)n3)cc2)C1 [Example 104, (S)-1-((S)-2-hydroxy-2-(4-(5-(1-(pyridin-2-yl)-5-(trifluoromethyl)-1H-pyrazol-4-yl)-1,2,4-oxadiazol-3-yl)phenyl)ethyl)pipcridine-3-carboxylic acid] | > 31000 nM | 4.5 nM | ≥ 6900*
O=C(O)[C@H]1CCCN(C[C@@H](O)c2ccc(-c3noc(-c4cnn(C5CCCCC5)c4C(F)(F)F)n3)cc2)C1 [Example 106, (S)-1-((S)-2-(4-(5-(1-cyclohcxyl-5-(trifluoromethyl)-1H-pyrazol-4-yl)-1,2,4-oxadiazol-3-yl)phenyl)-2-hydroxyethyl) piperidine-3-carboxylic acid] | 2250 nM | 1 nM | 2250
O=C(O)C[C@H]1CCCN(C[C@@H](O)c2ccc(-c3noc(-c4ncn(-c5ccc(Cl)cc5)c4C(F)(F)F)n3)cc2)C1 [Example 117, 2-((R)-1-((S)-2-(4-(5-(1-(4-Chlorophenyl)-5-(trifluoromethyl)-1H-imidazol-4-yl)-1,2,4-oxadiazol-3-yl)phenyl)-2-hydroxyethyl)piperidin-3-yl)acetic acid] | > 62000 nM | 26 nM | ≥ 2400*

From patent publication US8399451B2, “Heterocyclic compounds” (Bristol-Myers Squibb Company, priority 2009, dated 2013)
